Measurements: ChEMBL document CHEMBL5385845, “Novel coumarin aminophosphonates as potential multitargeting antibacterial agents against Staphylococcus aureus” (Eur J Med Chem, 2023)
In brackets after ≈: the same amount, converted by molar mass. Activity calls are given as the source filed them. The rule behind the calls is not given here.

Columns and labels:
Staphylococcus aureus [1] = experiment: Antibacterial activity against methicillin resistant Staphylococcus aureus N315 assessed as inhibition of bacterial growth; format: functional
Klebsiella pneumoniae = experiment: Antibacterial activity against Klebsiella pneumoniae assessed as inhibition of bacterial growth; format: functional
Staphylococcus aureus [2] = experiment: Synergistic antibacterial activity against Staphylococcus aureus assessed as fractional inhibitory concentration index in presence of norfloxacin; format: functional
Cell membrane [3] = experiment: Induction of cytoplasmic membrane depolarization in Staphylococcus aureus assessed as increase in fluorescence intensity measured at 10 mins by DiSC3(5) dye-based fluorescence assay; format: subcellular
Calf thymus DNA [4] = experiment: Binding affinity to calf thymus DNA by DAPI staining based competitive binding assay; format: nucleic-acid assay; settings: Bos taurus
Pseudomonas aeruginosa [5] = experiment: Antibacterial activity against Pseudomonas aeruginosa assessed as inhibition of bacterial growth; format: functional
Cell membrane [6] = experiment: Induction of cell membrane permeabilization in Staphylococcus aureus by propidium iodide dye-based fluorescence assay
Escherichia coli [7] = experiment: Synergistic antibacterial activity against Escherichia coli ATCC 25922 assessed as fractional inhibitory concentration index in presence of norfloxacin; format: functional
Staphylococcus aureus [8] = experiment: Induction of oxidative stress in Staphylococcus aureus assessed as decrease in GSH activity at 8 times MIC relative to control; format: functional; design: scale not given: the % may be the effect or the level left
Escherichia coli [9] = experiment: Antibacterial activity against Escherichia coli ATCC 25922 assessed as inhibition of bacterial growth; format: functional
Pseudomonas aeruginosa [10] = experiment: Antibacterial activity against Pseudomonas aeruginosa ATCC 27853 assessed as inhibition of bacterial growth; format: functional
Staphylococcus aureus [11] = experiment: Antibacterial activity against Staphylococcus aureus assessed as inhibition of bacterial growth; format: functional
Staphylococcus aureus [12] = experiment: Induction of drug resistance in Staphylococcus aureus assessed as increase in MIC measured for 16 passages; format: functional
Staphylococcus aureus [13] = experiment: Antibacterial activity against Staphylococcus aureus assessed as increase in RNS production by griess reagent-based analysis; format: functional, organism-based
Staphylococcus aureus [14] = experiment: Antibacterial activity against Staphylococcus aureus ATCC 25923 assessed as inhibition of bacterial growth; format: functional
Staphylococcus aureus [15] = experiment: Antibacterial activity against Staphylococcus aureus ATCC 29213 assessed as inhibition of bacterial growth; format: functional
Cell membrane [16] = experiment: Disruption of cell membrane integrity in Staphylococcus aureus assessed as cell membrane damage by scanning electron microscopic analysis; format: subcellular
Staphylococcus aureus [17] = experiment: Antibacterial activity against Staphylococcus aureus assessed as fold increase in malondialdehyde level at 1 to 5 times MIC; format: functional
Enterococcus faecalis = experiment: Antibacterial activity against Enterococcus faecalis assessed as inhibition of bacterial growth; format: functional
Staphylococcus aureus [18] = experiment: Antibacterial activity against Staphylococcus aureus assessed as inhibition of bacterial growth at 0.5 times MIC incubated for 4 hrs; format: functional, organism-based
Cell membrane [19] = experiment: Induction of cell membrane permeabilization in Staphylococcus aureus by calcein-AM dye-based fluorescence assay; format: subcellular
Staphylococcus aureus [20] = experiment: Antibacterial activity against Staphylococcus aureus assessed as reduction in cellular metabolic activity by resazurin staining based assay; format: functional, organism-based
Staphylococcus aureus [21] = experiment: Antibacterial activity against Staphylococcus aureus assessed as fold increase in RNS production at 8 times MIC by griess reagent-based analysis; format: functional
Acinetobacter baumannii = experiment: Antibacterial activity against Acinetobacter baumannii assessed as inhibition of bacterial growth; format: functional
Staphylococcus aureus [22] = experiment: Antibacterial activity against Staphylococcus aureus assessed as effect on lipid peroxidation production at 1 to 5 times MIC incubated for 5 to 20 mins; format: functional, organism-based; settings: time 5-20 min
Calf thymus DNA [23] = experiment: Binding affinity to calf thymus DNA assessed as intercalation by measuring hypochromic shift by UV-Vis spectroscopic analysis; format: nucleic-acid assay; settings: Bos taurus
Escherichia coli [24] = experiment: Synergistic antibacterial activity against Escherichia coli ATCC 25922 assessed as inhibition of bacterial growth in presence of norfloxacin; format: functional
Calf thymus DNA [25] = experiment: Binding affinity to calf thymus DNA by acridine orange staining based competitive binding assay; format: nucleic-acid assay; settings: Bos taurus
Cell membrane [26] = experiment: Disruption of cell membrane integrity in Staphylococcus aureus assessed as increase in protein leakage
Staphylococcus aureus [27] = experiment: Synergistic antibacterial activity against Staphylococcus aureus assessed as inhibition of bacterial growth in presence of norfloxacin; format: functional
Cell membrane [28] = experiment: Induction of cell membrane depolarization in Staphylococcus aureus assessed as increase in fluorescence intensity by DiSC3(5) dye-based fluorescence assay
Staphylococcus aureus [29] = experiment: Antibacterial activity against Staphylococcus aureus assessed as inhibition of bacterial growth at 1 to 4 times MIC incubated for 4 hrs; format: functional, organism-based
Staphylococcus aureus [30] = experiment: Antibacterial activity against Staphylococcus aureus assessed as fold increase in intracellular ROS production at 8 times MIC by DCFH-DA dye based fluorometric assay relative to control; format: functional
Staphylococcus aureus [31] = experiment: Antibacterial activity against Staphylococcus aureus assessed as reduction in bacterial biofilm formation at 16 x MIC relative to control; format: functional; design: scale not given: the % may be the effect or the level left
[32] = Hemolytic activity in RBC (unknown origin) assessed as hemolysis at 256 ug/ml incubated for 6 hrs relative to control; format: toxicity, cell-based, Erythrocyte; settings: red blood cells (erythrocytes), at 256 µg/mL, read-out: Activity
Escherichia coli [33] = experiment: Antibacterial activity against Escherichia coli assessed as inhibition of bacterial growth; format: functional
Staphylococcus aureus [34] = experiment: Antibacterial activity against Staphylococcus aureus assessed as reduction in bacterial biofilm formation; format: functional, organism-based

For `CCOP(=O)(OCC)C(Nc1ccc2c(C)cc(=O)oc2c1)c1cccc(O)c1` (configuration not stated), the MIC (Staphylococcus aureus [1]) was 32 µg/mL (≈ 76.7 µM), the MIC (Klebsiella pneumoniae) was 64 µg/mL (≈ 153 µM) and the “fractional inhibitory concentration index (FICI)” value (Staphylococcus aureus [2]) was 0.25. For the same compound, the Activity (Cell membrane [3]) was “Active”, the Activity (Calf thymus DNA [4]) was “Active” and the MIC (Pseudomonas aeruginosa [5]) was 16 µg/mL (≈ 38.3 µM). For the same compound, the Activity (Cell membrane [6]) was “Dose-Dependent Effect”, the “fractional inhibitory concentration index (FICI)” value (Escherichia coli [7]) was 0.75 and the Activity (Staphylococcus aureus [8]) was 16%. For the same compound, the MIC (Escherichia coli [9]) was 4 µg/mL (≈ 9.58 µM), the MIC (Pseudomonas aeruginosa [10]) was 64 µg/mL (≈ 153 µM) and the MIC (Staphylococcus aureus [11]) was 0.5 µg/mL (≈ 1.2 µM). For the same compound, the Activity (Staphylococcus aureus [12]) was “inactive”, the Activity (Staphylococcus aureus [13]) was “Dose-Dependent Effect” and the MIC (Staphylococcus aureus [14]) was 8 µg/mL (≈ 19.2 µM). The MIC (Staphylococcus aureus [15]) was 16 µg/mL (≈ 38.3 µM), the Activity (Cell membrane [16]) was “Active” and the “fold change (FC)” value (Staphylococcus aureus [17]) was 2. The MIC (Enterococcus faecalis) was 16 µg/mL (≈ 38.3 µM), the Activity (Staphylococcus aureus [18]) was “Active” and the Activity (Cell membrane [19]) was “Dose-Dependent Effect”. The Activity (Staphylococcus aureus [20]) was “Dose-Dependent Effect”, the “fold change (FC)” value (Staphylococcus aureus [21]) was 2.2 and the MIC (Acinetobacter baumannii) was 16 µg/mL (≈ 38.3 µM). The Activity (Staphylococcus aureus [22]) was “inactive”, the Activity (Calf thymus DNA [23]) was “Dose-Dependent Effect” and the MIC (Escherichia coli [24]) was 1 µg/mL. The Activity (Calf thymus DNA [25]) was “Active”, the Activity (Cell membrane [26]) was “Dose-Dependent Effect” and the MIC (Staphylococcus aureus [27]) was 0.063 µg/mL. For the same compound, the Activity (Cell membrane [28]) was “Dose-Dependent Effect”, the Activity (Staphylococcus aureus [29]) was “Active” and the “fold change (FC)” value (Staphylococcus aureus [30]) was 3.7. It also gave an Activity (Staphylococcus aureus [31]) of 30%, a hemolysis at 6 h, 256 ug/ml [32] of less than 4% and an MIC (Escherichia coli [33]) of 64 µg/mL (≈ 153 µM). The Activity (Staphylococcus aureus [34]) was “Dose-Dependent Effect”.
